{"source": "patent US11850266B2", "about": "“Cardiomyocytes and compositions and methods for producing the same” (President and Fellows of Harvard College, priority 2019, dated 2023)", "format_in_all_cases": "cell-based, human", "key": {"[1]": {"tested_on": "BJRiPS-derived cardiomyocytes", "experiment": "Example 3 preliminary qPCR of maturation genes in BJRiPS-derived cardiomyocytes", "description": "The BJRiPS cell line was used to generate preliminary data. BJRiPS cells were differentiated into cardiomyocytes according to previously published protocols (6). After the onset of beating (around day 10), cardiomyocytes were treated with vehicle (DMSO) or different concentrations of rapamycin, Torin1, or Torin2 for different time periods. Beating rate was counted manually. Some cells were harvested after 5-7 days of treatment for flow cytometry analysis. Other cells were harvested after 7 days of treatment for qPCR."}, "[2]": {"tested_on": "iPSC-derived cardiomyocytes", "experiment": "Voltage (FluoVolt) analysis with Vala Kinetic Image Cytometer", "description": "Following completion of Torin1 treatment, cardiomyocytes were dissociated as described above then replated at a density of 20,000-30,000 cells per well in a Geltrex-coated Greiner Cellstar black 96 well plate. FluoVolt dye (1:1000 from stock in the FluoVolt Membrane Potential Kit, Thermo) and Hoechst 33258 stain (20 μg/ml) in RPMI1640 (no phenol red) (supplemented with OxyFluor (Oxyrase, 1:100 dilution), 10 mM sodium lactate) were added to each well 15 minutes prior to assay. Cells were electrically stimulated with 15 V at a frequency of 0.5 pulses/sec and a pulse width of 5 msec for 5 pulses using the IC200 Kinetic Image Cytometer (Vala). Images were acquired at 20× and at a frame rate of 70 frames per second. Voltage analysis was performed using the CyteSeer image analysis software, which automatically recognizes Hoechst-stained nuclei, segments, and identifies each cell to quantify voltage data for each cell captured in the field of view (34). Cells were identified by Hoechst-stained nuclei, segmented into individual cells and automatically numbered by CyteSeer software (FIG. 4C). Within each cell, fluorescence intensity was recorded from within a circular region within each numbered, nucleated cell. […] Data from approximately 300-500 individual cells were included for analysis for each condition. Baseline fluorescence was used to normalize for variability in fluorescence intensity between individual cells. The peak rise time, CTD25 (25% duration of the calcium transient, or duration at 25% decline from maximum amplitude), CTD75 (75% duration of the calcium transient, or duration at 75% decline from maximum amplitude), T75-25 (time for voltage to decay from 75% to 25% of maximum), and downstroke velocity were quantified using the CyteSeer image analysis software."}, "[3]": {"tested_on": "iPSC-derived cardiomyocytes", "experiment": "NanoString PanCancer Pathways Panel gene expression", "conditions": "Torin1 200 nM 1 week, Gibco iPS-CMs, FIG. 7G", "description": "Gene expression analysis was performed using NanoString technology which employs an optical counting method of fluorescently barcoded RNA according to the manufacturer's instructions. The nCounter PanCancer Pathways Panel was selected to provide a multiplex analysis of 770 genes from several growth and cell cycle-related pathways, including cell cycle, apoptosis, Wnt, transcriptional regulation, PI3K, and TGF-β. This panel was selected to provide a multiplex analysis of pathways associated with cell cycle regulation, metabolism, quiescence and senescence. Cardiomyocytes were differentiated in a 12-well plate then cardiomyocytes were treated with Torin1 (200 nM) or vehicle (DMSO) starting ˜2 days after onset of beating for 1 week (days 9-16 for this batch). After completion of Torin1 treatment, cells were switched back to maintenance media (RPMI+B27+insulin). Beginning on day 18 of differentiation, 10% fetal bovine serum (FBS) was added to half of the wells per treatment group and FBS treatment was continued for 4 days (until day 22 of differentiation). […] Data were analyzed using nSolver 4.0 software with the Advanced Analysis Module 2.0 with normalization to internal housekeeping genes including in the panel to perform unsupervised hierarchical clustering, differential expression analyses, and pathway scoring using the R statistical package."}, "[4]": {"conditions": "Torin1 10, 50, 200 nM, days 11-18, FIG. 32"}}}
{"smiles": "CCC(=O)N1CCN(c2ccc(-n3c(=O)ccc4cnc5ccc(-c6cnc7ccccc7c6)cc5c43)cc2C(F)(F)F)CC1", "note": "[Torin1]", "values": [{"measurement": "RNA expression of ryanodine receptor (RyR) and SCN5a", "setting": "[1]; FIG. 32", "value": "trend toward increased RNA expression"}, {"measurement": "TNNI3 gene expression increase", "setting": "[1]; Torin1 200 nM (highest dose tested), FIG. 30", "value": "~10", "unit": "fold"}, {"measurement": "RNA expression of TNNT2, TNNI3, MYH6, MYH7", "setting": "[1]; Torin1 10, 50, 200 nM, days 11-18, FIG. 30", "value": "increased RNA expression of these proteins in a dose dependent manner"}, {"measurement": "KCNJ2 expression", "setting": "[1]; [4]", "value": "trend toward a dose-dependent increase"}, {"measurement": "ion channel gene expression (KCNJ2, HCN4, SCN5a, RYR2, CACNA1c, SERCA2a)", "setting": "[1]; [4]", "value": "Ion channel gene expression increased"}, {"measurement": "NPPB (BNP) mRNA expression", "setting": "[1]; Torin1 10, 50, 200 nM, days 11-18, FIG. 33", "value": "increased"}, {"measurement": "PGC1-alpha (PPARGC1a) mRNA expression", "setting": "[1]; Torin1 10, 50, 200 nM, days 11-18, FIG. 35", "value": "increased expression"}, {"measurement": "REST/NRSF expression", "setting": "[1]; dose-dependent, Torin1 10, 50, 200 nM, FIG. 34", "value": "increases gene expression for REST"}, {"measurement": "RNA expression of markers of maturation including TNNI3 and KCNJ2", "setting": "[1]; preliminary data, after differentiation", "value": "increased RNA expression"}, {"measurement": "action potential profile", "setting": "[2]; FluoVolt, FIG. 4E", "value": "longer plateau phase and a sharper upstroke and downstroke"}, {"measurement": "action potential peak rise time", "setting": "[2]; UCSD-CMs, FIG. 4F", "value": "significant decrease"}, {"measurement": "downstroke velocity", "setting": "[2]; UCSD-CMs, FIG. 4G", "value": "significant increase"}, {"measurement": "CTD25", "setting": "[2]; UCSD-CMs, FIG. 4H", "value": "no changes"}, {"measurement": "CTD75", "setting": "[2]; UCSD-CMs, FIG. 4I", "value": "significant decrease"}, {"measurement": "T75-25 time", "setting": "[2]; UCSD-CMs, FIG. 4J", "value": "significant decrease"}, {"measurement": "expression of interleukin-8 (IL8) and SPP1 (osteopontin)", "setting": "[3]", "value": "significant decrease in expression"}]}
